Species: Rattus norvegicus
Experiment: Open TG-GATES - Regimen: Single
Format: toxicity, organism-based, Sprague-Dawley
Set-up: regimen Single, gender Male, age 6 weeks
Settings: in vivo, iv, route intravenous injection; for KIDNEY_L / KIDNEY_R / KIDNEY_TOTAL: tissue Kidney; for LIVER: tissue Liver; for ALP / ALT / AST / BUN / CRE / DBIL / GLC / IP / K / PL / RALB / TBIL / TC / TG / TP / gamma-GTP / LDH / Na: tissue Plasma
[1] = 0 mg/kg, 3 h, dose level Control
[2] = 0 mg/kg, 3 h, tissue Blood, dose level Control
[3] = 0 mg/kg, 6 h, dose level Control
[4] = 0 mg/kg, 6 h, tissue Blood, dose level Control
[5] = 0 mg/kg, 9 h, dose level Control
[6] = 0 mg/kg, 9 h, tissue Blood, dose level Control
[7] = 0 mg/kg, 24 h, dose level Control
[8] = 0 mg/kg, 24 h, tissue Blood, dose level Control

## CARBOPLATIN
[1]
  TERMINAL_BW: 198.4 g
  KIDNEY_L: 0.9 g
  KIDNEY_R: 0.9 g
  KIDNEY_TOTAL: 1.8 g
  LIVER: 9.1 g
  ALP: 1848.6 IU/L
  ALT: 47 IU/L
  AST: 86.2 IU/L
  BUN: 13.6 mg/dL
  CRE: 0.2 mg/dL
  DBIL: 0 mg/dL
  GLC: 197.2 mg/dL
  IP: 8.3 mg/dL
  K: 3.9 meq/L
  PL: 127.8 mg/dL
  RALB: 3 g/dL
  TBIL: 0.012 mg/dL
  TC: 71.8 mg/dL
  TG: 43 mg/dL
  TP: 5.5 g/dL
  gamma-GTP: 1.2 IU/L
[2]
  Bas: 0%
  Eos: 0.4%
  Fbg: 277.4 mg/dL
  Lym: 80%
  MCH: 21.1 pg
  MCHC: 32.1%
  MCV: 65.9 fL
  Mono: 2.2%
  Neu: 16.2%
  PT: 16 s
  Plat: 125.4 x10_4/uL
  RBC: 633.2 x10_4/ul
  Ret: 6.4%
  WBC: 107.8 x10_2/uL
[3]
  TERMINAL_BW: 200.5 g
  KIDNEY_L: 0.9 g
  KIDNEY_R: 0.9 g
  KIDNEY_TOTAL: 1.8 g
  LIVER: 8.5 g
  ALP: 1354.4 IU/L
  AST: 77 IU/L
  BUN: 11.4 mg/dL
  CRE: 0.2 mg/dL
  DBIL: 0 mg/dL
  GLC: 180.6 mg/dL
  IP: 9.3 mg/dL
  K: 4.4 meq/L
  LDH: 202.4 IU/L
  PL: 128 mg/dL
  RALB: 2.9 g/dL
  TBIL: 0.01 mg/dL
  TC: 74.2 mg/dL
  TG: 74.2 mg/dL
  TP: 5.3 g/dL
  gamma-GTP: 1.4 IU/L
[4]
  APTT: 24.3 s
  Bas: 0%
  Eos: 0.8%
  Fbg: 274.2 mg/dL
  Lym: 80.8%
  MCV: 64 fL
  Mono: 2.6%
  Neu: 15.4%
  PT: 16.1 s
  Plat: 119.1 x10_4/uL
  RBC: 645.6 x10_4/ul
  Ret: 6.5%
  WBC: 98 x10_2/uL
[5]
  TERMINAL_BW: 195.2 g
  KIDNEY_L: 0.9 g
  KIDNEY_R: 0.9 g
  KIDNEY_TOTAL: 1.8 g
  LIVER: 8.2 g
  ALP: 1521.4 IU/L
  ALT: 38.8 IU/L
  AST: 75.2 IU/L
  CRE: 0.2 mg/dL
  DBIL: 0 mg/dL
  GLC: 182.2 mg/dL
  IP: 9.7 mg/dL
  K: 4.3 meq/L
  LDH: 155 IU/L
  Na: 140.4 meq/L
  PL: 123.6 mg/dL
  RALB: 2.9 g/dL
  TBIL: 0.008 mg/dL
  TC: 72.4 mg/dL
  TG: 57.2 mg/dL
  TP: 5.3 g/dL
  gamma-GTP: 1 IU/L
[6]
  APTT: 24.6 s
  Bas: 0%
  Eos: 0.6%
  Fbg: 296.4 mg/dL
  Hb: 13 g/dL
  Lym: 77.2%
  MCHC: 31.9%
  MCV: 64.4 fL
  Mono: 2%
  Neu: 19.8%
  PT: 16 s
  Plat: 121.6 x10_4/uL
  RBC: 635.2 x10_4/ul
  Ret: 6.3%
  WBC: 80.5 x10_2/uL
[7]
  TERMINAL_BW: 214.9 g
  KIDNEY_L: 1 g
  KIDNEY_R: 1 g
  KIDNEY_TOTAL: 2 g
  LIVER: 9.7 g
  ALP: 1592.8 IU/L
  ALT: 42.2 IU/L
  AST: 73 IU/L
  BUN: 16.6 mg/dL
  CRE: 0.2 mg/dL
  DBIL: 0 mg/dL
  GLC: 183 mg/dL
  IP: 7.2 mg/dL
  K: 4.5 meq/L
  LDH: 175 IU/L
  Na: 140.4 meq/L
  PL: 133.4 mg/dL
  RALB: 2.9 g/dL
  TBIL: 0.006 mg/dL
  TC: 69.6 mg/dL
  TG: 84.4 mg/dL
  TP: 5.4 g/dL
  gamma-GTP: 1.2 IU/L
[8]
  APTT: 23.2 s
  Bas: 0%
  Eos: 1%
  Fbg: 280.2 mg/dL
  Lym: 82.8%
  MCHC: 32.1%
  MCV: 63 fL
  Mono: 2.4%
  PT: 16.6 s
  Plat: 124.1 x10_4/uL
  RBC: 648.4 x10_4/ul
  Ret: 5.2%
  WBC: 108.2 x10_2/uL
10 mg/kg, 3 h, dose level Low
  TERMINAL_BW: 205.7 g
